Assays:
Assay type in all cases: in vivo, Sprague-Dawley rats
[1] = Overall and qualitative evaluation of the gas-treated rats (neurotoxic effect, behaviour) during the sensitization protocol; conditions: conclusion from locomotor and righting activity of the gas-exposed rats
Method: (§1) To do this, adult male Sprague-Dawley rats that weighed approximately 220 g when they arrived in the laboratory were used. Throughout the study, the animals were placed under standard animalhouse conditions, in groups of 8, so as to avoid the appearance of a stress reaction subsequent to isolation. They had water and food ad libitum.
(§2) For 3 consecutive days (from D1 to D3), 8 groups of animals (8 rats per group) were administered intraperitoneally (i.p.) either D-amphetamine (amph: 1 mg/ml/kg), or a saline solution (saline: 1 ml/kg) for the control animals. […]
(§3) The locomotor activity and the righting activity of the animals were evaluated at D6, after an i.p. injection of a saline solution (1 ml/kg) in order to determine the actual effects of the treatments administered with the various gases and mixtures of gas, and on D7 after an i.p. administration of D-amphetamine (1 mg/ml/kg) in order to evaluate the effects of the gases and mixtures of gas on sensitization to D-amphetamine. […]

[2] = test system: sensitization to D-amphetamine; experiment: Locomotor activity on D7 after D-amphetamine challenge (photoelectric cell actimetry) in the D-amphetamine sensitization protocol; conditions: rats given D-amphetamine 1 mg/kg i.p. D1-D3, each injection followed by 3 h gas exposure, versus sensitized rats treated with air
Method: as §1, §2, §3
(§4) The results obtained (see FIGS. 1 and 2) are expressed as the mean±the standard error of the mean. […]

[3] = test system: sensitization to D-amphetamine; experiment: Stereotypic righting activity on D7 after D-amphetamine challenge (photoelectric cell actimetry) in the D-amphetamine sensitization protocol; conditions: rats given D-amphetamine 1 mg/kg i.p. D1-D3, each injection followed by 3 h gas exposure, versus sensitized rats treated with air
Method: as §1, §2, §3, §4

argon [argon at 75 vol %]
neurotoxic effect [1]: without any neurotoxic effect being observed
effect on the locomotor hyperactivity inherent to the development of sensitization to D-amphetamine [2]: total inhibitory effect
effect on the righting activity corresponding to the development of the sensitization to D-amphetamine [3]: inhibitory effect
